The supplement of paper PMC10627819

Columns and labels:
S. pneumoniae D39V [1] = experiment: Bliss interaction score (quartile over a dose matrix) (fitness difference); higher = more antagonism (negative = synergy)
How it was run: (§1)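 Growth in each well was taken as OD595 at entry into stationary phase. Dividing by the plate's robust no-drug mean and capping at 1 gave fitness, and single-drug fitness was inferred from the combination data. The Bliss score, observed minus product-expected fitness, is summarised by quartiles over technical, biological and donor/recipient replicates.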

B. subtilis 168 = experiment: as above
How it was run: as §1

S. aureus DSM 20231 = experiment: as above
How it was run: as §1

S. aureus Newman [2] = experiment: as above
How it was run: as §1

S. pneumoniae D39V [3] = experiment: fitness (endpoint OD595 vs no drug) (fraction); higher = more growth
How it was run: (§2)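 Fitness compares growth at the stationary-phase transition with the robust mean of no-drug control wells, as a ratio of optical densities. The ratio is capped at 1. Wells of 384-well plates held 30 µl, or 55 µl for S. pneumoniae, inoculated at OD595 0.01. Readings at OD595 every 30 min for 14 h at 37 °C were corrected against the first reading.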

S. aureus Newman [4] = experiment: as above
How it was run: as §2
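Wherever Bliss interaction score (quartile over a dose matrix) is given: first quartile when negative (synergy) and third quartile when positive (antagonism).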

CO/N=C(\C(=O)N[C@@H]1C(=O)N2C(C(=O)O)=C(COC(C)=O)CS[C@H]12)c1csc(N)n1 [Cefotaxime] + C/C(=C\C(=O)OCCCCCCCCC(=O)O)C[C@@H]1OC[C@H](C[C@@H]2O[C@H]2[C@@H](C)[C@H](C)O)[C@@H](O)[C@H]1O [Pseudomonic acid]
Conditions | Bliss interaction score
B. subtilis 168 | 0.0549
S. aureus DSM 20231 | 0.0223
S. aureus Newman [2] | 0.022
S. pneumoniae D39V [1] | 0.0643

fitness, S. pneumoniae D39V [3]
Conditions | first compound 0.0018 µg/mL | first compound 0.0035 µg/mL | first compound 0.007 µg/mL
partner 0.03 µg/mL | 0.978 | 0.962 | 0.962
partner 0.06 µg/mL | 0.833 | 0.862 | 0.809
partner 0.12 µg/mL | 0.551 | 0.56 | 0.517

fitness, S. aureus Newman [4], one replicate
Conditions | first compound 0.078 µg/mL | first compound 0.156 µg/mL | first compound 0.312 µg/mL
partner 0.0313 µg/mL | 0.054 | 0.0458 | 0.0509
partner 0.0625 µg/mL | 0.0409 | 0.0394 | 0.0414
partner 0.125 µg/mL | 0.0477 | 0.0707 | 0.0616

CO/N=C(\C(=O)N[C@@H]1C(=O)N2C(C(=O)O)=C(COC(N)=O)CS[C@H]12)c1ccco1 [Cefuroxime] + CCCCCCCCCC(=O)N[C@@H]1[C@H]([C@@H]([C@H](O[C@H]1OC2=C3C=C4C=C2OC5=C(C=C(C=C5)[C@H]([C@H]6C(=O)N[C@@H](C7=C(C(=CC(=C7)O)OC8[C@H]([C@H]([C@@H]([C@H](O8)CO)O)O)O)C9=C(C=CC(=C9)[C@H](C(=O)N6)NC(=O)[C@@H]4NC(=O)[C@@H]1C2=CC(=CC(=C2)OC2=C(C=CC(=C2)[C@H](C(=O)N[C@H](CC2=CC(=C(O3)C=C2)Cl)C(=O)N1)N)O)O)O)C(=O)O)O[C@H]1[C@@H]([C@H]([C@@H]([C@H](O1)CO)O)O)NC(=O)C)Cl)CO)O)O [Teicoplanin]
main component drawn
Conditions | Bliss interaction score
B. subtilis 168 | -0.0964
S. aureus DSM 20231 | 0.15
S. aureus Newman [2] | 0.0304
S. pneumoniae D39V [1] | -0.0352

fitness, S. aureus Newman [4], one replicate, main component drawn
Conditions | first compound 0.04875 µg/mL | first compound 0.0975 µg/mL | first compound 0.195 µg/mL
partner 0.1562 µg/mL | ≥ 1 | 0.968 | 0.888
partner 0.3125 µg/mL | 0.991 | 0.968 | 0.953
partner 0.625 µg/mL | ≥ 1 | 0.977 | 0.973

CO/N=C(\C(=O)N[C@@H]1C(=O)N2C(C(=O)O)=C(COC(N)=O)CS[C@H]12)c1ccco1 [Cefuroxime] + CN[C@H](CC(C)C)C(=O)N[C@H]1C(=O)N[C@@H](CC(N)=O)C(=O)N[C@H]2C(=O)N[C@H]3C(=O)N[C@H](C(=O)N[C@H](C(=O)O)c4cc(O)cc(O)c4-c4cc3ccc4O)[C@H](O)c3ccc(c(Cl)c3)Oc3cc2cc(c3O[C@@H]2O[C@H](CO)[C@@H](O)[C@H](O)[C@H]2O[C@H]2C[C@](C)(N)[C@H](O)[C@H](C)O2)Oc2ccc(cc2Cl)[C@H]1O [Vancomycin]
Conditions | Bliss interaction score
B. subtilis 168 | -0.0941
S. aureus DSM 20231 | 0.14
S. aureus Newman [2] | 0.0418
S. pneumoniae D39V [1] | -0.0597

fitness, S. aureus Newman [4], one replicate
Conditions | first compound 0.04875 µg/mL | first compound 0.0975 µg/mL | first compound 0.195 µg/mL
partner 0.1875 µg/mL | 0.934 | 0.974 | 0.943
partner 0.375 µg/mL | 0.93 | 0.995 | 0.925
partner 0.75 µg/mL | 0.975 | 0.988 | 0.926

CO/N=C(\C(=O)N[C@@H]1C(=O)N2C(C(=O)O)=C(COC(N)=O)CS[C@H]12)c1ccco1 [Cefuroxime] + Cn1nnc(-c2ccc(-c3ccc(N4C[C@H](CO)OC4=O)cc3F)cn2)n1 [Tedizolid]
Conditions | Bliss interaction score
B. subtilis 168 | 0.136
S. aureus DSM 20231 | -0.223
S. aureus Newman [2] | 0.259
S. pneumoniae D39V [1] | 0.026

fitness, S. aureus Newman [4], one replicate
Conditions | first compound 0.04875 µg/mL | first compound 0.0975 µg/mL | first compound 0.195 µg/mL
partner 0.0625 µg/mL | 0.614 | 0.641 | 0.517
partner 0.125 µg/mL | 0.0599 | 0.0707 | 0.0587
partner 0.25 µg/mL | 0.496 | 0.513 | 0.425

O=C(O)c1cn(C2CC2)c2cc(N3CCNCC3)c(F)cc2c1=O [Ciprofloxacin] + C/C(=C\C(=O)OCCCCCCCCC(=O)O)C[C@@H]1OC[C@H](C[C@@H]2O[C@H]2[C@@H](C)[C@H](C)O)[C@@H](O)[C@H]1O [Pseudomonic acid]
Conditions | Bliss interaction score
B. subtilis 168 | 0.0413
S. aureus DSM 20231 | 0.0149
S. aureus Newman [2] | 0.0616
S. pneumoniae D39V [1] | 0.0559

fitness, S. pneumoniae D39V [3]
Conditions | first compound 0.125 µg/mL | first compound 0.25 µg/mL | first compound 0.5 µg/mL
partner 0.03 µg/mL | 0.92 | 0.877 | –
partner 0.06 µg/mL | 0.828 | 0.742 | –
partner 0.12 µg/mL | 0.444 | 0.551 | 0.393

fitness, S. aureus Newman [4], one replicate
Conditions | first compound 0.078 µg/mL | first compound 0.156 µg/mL | first compound 0.312 µg/mL
partner 0.0313 µg/mL | 0.0919 | 0.0675 | 0.0586
partner 0.0625 µg/mL | 0.052 | 0.0404 | 0.0324
partner 0.125 µg/mL | 0.0642 | 0.0505 | 0.0607

O=C(O)c1cn(C2CC2)c2cc(N3CCNCC3)c(F)cc2c1=O [Ciprofloxacin] + CCCCCCCCCC(=O)N[C@@H]1[C@H]([C@@H]([C@H](O[C@H]1OC2=C3C=C4C=C2OC5=C(C=C(C=C5)[C@H]([C@H]6C(=O)N[C@@H](C7=C(C(=CC(=C7)O)OC8[C@H]([C@H]([C@@H]([C@H](O8)CO)O)O)O)C9=C(C=CC(=C9)[C@H](C(=O)N6)NC(=O)[C@@H]4NC(=O)[C@@H]1C2=CC(=CC(=C2)OC2=C(C=CC(=C2)[C@H](C(=O)N[C@H](CC2=CC(=C(O3)C=C2)Cl)C(=O)N1)N)O)O)O)C(=O)O)O[C@H]1[C@@H]([C@H]([C@@H]([C@H](O1)CO)O)O)NC(=O)C)Cl)CO)O)O [Teicoplanin]
main component drawn
Conditions | Bliss interaction score
B. subtilis 168 | -0.1
S. aureus DSM 20231 | 0.0835
S. aureus Newman [2] | -0.0935
S. pneumoniae D39V [1] | -0.063

fitness, S. aureus Newman [4], main component drawn
Conditions | first compound 0.0375 µg/mL | first compound 0.075 µg/mL | first compound 0.15 µg/mL
partner 0.1562 µg/mL | 0.681 | 0.629 | 0.0421
partner 0.3125 µg/mL | 0.713 | 0.626 | 0.0116
partner 0.625 µg/mL | 0.608 | 0.534 | 0.0117

fitness, S. aureus Newman [4], one replicate, main component drawn
Conditions | first compound 0.078 µg/mL | first compound 0.156 µg/mL | first compound 0.312 µg/mL
partner 0.62 µg/mL | 0.535 | 0.0341 | 0.036
partner 1.24 µg/mL | 0.372 | 0.0368 | 0.0337
partner 2.48 µg/mL | 0.0816 | 0.0702 | 0.0565
